# According to US20110039825A1, “LIGANDS OF ALPHA-ADRENOCEPTORS, DOPAMINE, HISTAMINE, IMIDAZOLINE AND SEROTONIN RECEPTORS AND THEIR USE” (Alla Chem, LLC, priority 2007, published 2011):
# What was measured:
# male mice of BALB/c line [1] = assay: Passive Avoidance of mice in the Shuttle Chamber, memory disturbed by Scopolamine; assay type: in vivo; conditions: Scopolamine 0.3 mg/kg
# Description: A shuttle chamber (Ugo Basile, Italy) consisted of two sections was used. […] The sections were connected through a hole which could be overlapped by a vertical door. The floor was made of transverse metal bars on which DC current impulses could be fed. Experiments were carried out in aged male mice of BALB/c line weighing 20-24 grams.
# Each group consisted of at least 8 animals. Animal was placed in light section, and latent period of the first entry into dark chamber was registered. Then the vertical door was closed and the animal was punished by 0.6 mA DC current for 3 seconds. After that it was taken back to its homecage. In 22-24 hours the same animal was placed again in light section of the shuttle chamber and latent period of its first entry into dark section, the total time of its stay in light section, and the number of entries into dark section, were registered. Each monitoring lasted for 5 minutes.
# Testing was carried out during the day time in isolated laboratory using white noise at level of about 70 decibel above human hearing threshold.
# Scopolamine causes the disturbance of training (memory loss) that results in […].
# male mice of BALB/c line [2] = assay: Mice Behavior in the Elevated Plus Maze; assay type: in vivo; conditions: doses of 0.05 and 0.1 mg/kg
# Description: The length of each arm of the maze was 30 cm, width is 5 cm, and height of the walls was 15 cm. Two opposite arms were closed from both sides and end faces by transparent walls, the other two arms were lit and opened. A mouse was placed in the center of the maze and for the next five minutes the number of entries into opened and closed arms and the time spent in each type of arms was registered. […] The animals usually avoided opened arms (the preference index is between 0.2 and 0.3). Compounds with tranquilizing action increased this index up to 0.5-0.6 or even more and reduced the number of defecations without changing the overall motion activity of the mice (the total number of their entries to the arms).
# mice = assay: Mice Training in Morris Water Maze (Scopolamine); assay type: in vivo; conditions: unitary introduction of active ingredient
# Description: Mice Training in Morris Water Maze. A round pool which was filled with water at 20-22° C. was used. A round ceramic platform of 14 cm height was placed in the pool. Animals's behavior was registered with automated computer videosystem in combination with software package of movement analysis Any-maze (Stoelting Co., US). Before testing mice suitable for training were selected. That was done by placing the platform 1 cm above the water level and putting an animal on the platform for 20 seconds. Then the mouse was sunk into the water on the opposite side of the pool, allowed to find the platform and climbed it within 60 seconds, where it was left for additional 20 seconds. After that the mouse was repeatedly immersed into water on the opposite side of the pool and allowed to look for platform. If it failed in finding the platform within 60 seconds the experimentator helped it to find the platform and climb it. If the mice could not find the platform itself in two consecutive attempts it was excluded from experiment.
# During the next two days the platform was placed 0.5 centimeter lower the water level. Every day the mice were given four attempts for finding the platform within 60 seconds. The time interval between the attempts was 20 seconds, during which the mice stayed on the platform. Every day before the first attempt mouse was placed on the platform for 20 seconds. The time needed for finding and climbing the platform was registered. The animals were sunk in water in 3 different places on the side of the pool opposite to platform. On each day of two-day testing 35-40 minutes before the beginning of training the mice were injected intraintestinally with physiological solution, Scopolamine or Scopolamine in combination with investigated compound. At least 8 animals were used in each group.
# On the third day the platform was removed and each animal was placed one time in the pool for a period of 60 seconds. The time each mouse spent in the area where the platform had been located during the previous days was registered. This time interval was regarded as a measure of effectiveness of training fulfilled during the previous two days. The testing was carried out during the day time in isolated laboratory using “white noise” at level of about 70 decibel above the human hearing threshold.
# human α1D receptor = biological target: T1, human α1D receptor (Homo sapiens, UniProt P25100); assay: radioligand binding to adrenergic receptor α1D ([3H] Prazosin); conditions: 10 μM ligand
# T1 construct: expressed in transfected cells; host or cells: HEK-293
# T1 sequence (P25100 1-572): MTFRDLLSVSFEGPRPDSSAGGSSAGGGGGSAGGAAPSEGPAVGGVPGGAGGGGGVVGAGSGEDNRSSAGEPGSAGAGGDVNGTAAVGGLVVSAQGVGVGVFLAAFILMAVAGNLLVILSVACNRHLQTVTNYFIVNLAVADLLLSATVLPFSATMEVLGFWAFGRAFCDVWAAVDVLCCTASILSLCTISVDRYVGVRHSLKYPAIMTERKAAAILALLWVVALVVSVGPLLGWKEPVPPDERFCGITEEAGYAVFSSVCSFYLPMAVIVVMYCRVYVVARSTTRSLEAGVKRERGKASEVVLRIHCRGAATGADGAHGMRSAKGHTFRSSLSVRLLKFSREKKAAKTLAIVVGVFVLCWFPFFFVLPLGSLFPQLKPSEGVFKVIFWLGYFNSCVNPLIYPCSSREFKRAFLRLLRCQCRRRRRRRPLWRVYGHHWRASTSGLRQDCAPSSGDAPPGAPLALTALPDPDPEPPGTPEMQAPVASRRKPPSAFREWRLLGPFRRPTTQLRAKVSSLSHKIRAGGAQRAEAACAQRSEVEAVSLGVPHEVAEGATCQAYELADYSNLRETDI
# Description: 6-C. […] For this purpose sDNA of human α1D receptor is expressed in HEK-293 cells, as it was described in [T L Theroux, T A Esbenshade, R D Peavy and K P Minneman. Coupling efficiencies of human alpha 1-adrenergic receptor subtypes: titration of receptor density and responsiveness with inducible and repressible expression vectors. Mol. Pharmacol.; 50: 1376-1387, 1996]. […] Prazosin is used as positive control.
# human H1 receptor = biological target: T2, human H1 receptor (Homo sapiens, UniProt P35367); assay: radioligand binding to histamine receptor H1 ([3H] Pyrilamine); conditions: 10 μM ligand
# T2 construct: expressed in transfected cells; host or cells: CHO-K1
# T2 sequence (P35367 whole entry): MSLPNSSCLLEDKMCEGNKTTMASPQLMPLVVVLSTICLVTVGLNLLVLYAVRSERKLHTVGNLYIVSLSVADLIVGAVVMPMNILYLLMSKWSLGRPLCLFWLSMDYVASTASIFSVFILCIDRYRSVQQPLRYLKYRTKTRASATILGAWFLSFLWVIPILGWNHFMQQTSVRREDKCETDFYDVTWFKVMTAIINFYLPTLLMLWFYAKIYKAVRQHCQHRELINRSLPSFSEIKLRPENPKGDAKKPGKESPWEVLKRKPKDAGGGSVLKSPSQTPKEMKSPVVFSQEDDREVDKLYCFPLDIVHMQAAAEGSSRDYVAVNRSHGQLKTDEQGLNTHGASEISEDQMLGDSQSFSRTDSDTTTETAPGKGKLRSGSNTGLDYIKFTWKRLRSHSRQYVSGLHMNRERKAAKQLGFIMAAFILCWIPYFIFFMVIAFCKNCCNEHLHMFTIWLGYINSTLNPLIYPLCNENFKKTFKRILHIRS
# Description: Biochem Biophys Res Comm. 197(3): 1601-1608, 1993]. […] Biochem Biophys Res Comm. 197(3): 1601-1608, 1993].
# Pyrilamine is used as positive control.
# human H2 receptor = biological target: T3, human H2 receptor (Homo sapiens, UniProt P25021); assay: radioligand binding to histamine receptor H2 ([125I] Aminopotentidine); conditions: 10 μM ligand
# T3 construct: expressed in transfected cells; host or cells: CHO-K1
# T3 sequence (P25021 whole entry): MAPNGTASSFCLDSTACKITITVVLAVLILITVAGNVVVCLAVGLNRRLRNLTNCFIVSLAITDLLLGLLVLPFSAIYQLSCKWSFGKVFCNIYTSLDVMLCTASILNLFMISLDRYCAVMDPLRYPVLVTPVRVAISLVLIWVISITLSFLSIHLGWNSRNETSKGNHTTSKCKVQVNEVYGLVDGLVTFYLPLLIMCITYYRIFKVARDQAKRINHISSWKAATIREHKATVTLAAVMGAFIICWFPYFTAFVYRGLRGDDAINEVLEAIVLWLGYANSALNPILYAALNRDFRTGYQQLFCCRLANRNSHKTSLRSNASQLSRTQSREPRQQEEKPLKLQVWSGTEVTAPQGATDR
# Description: Proc Natl Acad Sci USA. 87(5): 1658-1662, 1990]. […] Proc Natl Acad Sci USA. 87(5): 1658-1662, 1990]. […] Tiotidine is used as positive control.
# [3] = biological target: T4, recombinant human 5-HT2A receptor (Homo sapiens, UniProt P28223); assay: radioligand binding to serotonin receptor 5-HT2A ([3H] Ketanserin)
# T4 construct: expressed in transfected cells; host or cells: CHO-K1
# T4 sequence (P28223 whole entry): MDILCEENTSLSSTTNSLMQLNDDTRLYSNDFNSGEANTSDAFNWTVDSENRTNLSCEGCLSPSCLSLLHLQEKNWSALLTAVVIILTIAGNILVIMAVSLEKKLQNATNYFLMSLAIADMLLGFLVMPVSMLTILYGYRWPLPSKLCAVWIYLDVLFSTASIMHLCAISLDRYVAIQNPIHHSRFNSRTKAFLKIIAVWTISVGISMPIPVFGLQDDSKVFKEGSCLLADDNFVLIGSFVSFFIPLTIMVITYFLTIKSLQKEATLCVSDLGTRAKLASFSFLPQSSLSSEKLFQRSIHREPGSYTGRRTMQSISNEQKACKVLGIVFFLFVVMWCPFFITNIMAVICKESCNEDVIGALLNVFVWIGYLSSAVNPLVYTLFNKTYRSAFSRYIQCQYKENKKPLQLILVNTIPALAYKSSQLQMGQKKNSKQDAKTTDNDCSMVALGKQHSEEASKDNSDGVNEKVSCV
# Description: 9-C. […] J. Neurochem. […] Ketanserin is used as positive control. […] Values of % I is calculated according to the following equation: […]
# [4] = biological target: T5, recombinant human 5-HT2B receptor (Homo sapiens, UniProt P41595); assay: radioligand binding to serotonin receptor 5-HT2B ([3H] Lysergic acid diethylamide)
# T5 construct: expressed in transfected cells; host or cells: CHO-K1
# T5 sequence (P41595 whole entry): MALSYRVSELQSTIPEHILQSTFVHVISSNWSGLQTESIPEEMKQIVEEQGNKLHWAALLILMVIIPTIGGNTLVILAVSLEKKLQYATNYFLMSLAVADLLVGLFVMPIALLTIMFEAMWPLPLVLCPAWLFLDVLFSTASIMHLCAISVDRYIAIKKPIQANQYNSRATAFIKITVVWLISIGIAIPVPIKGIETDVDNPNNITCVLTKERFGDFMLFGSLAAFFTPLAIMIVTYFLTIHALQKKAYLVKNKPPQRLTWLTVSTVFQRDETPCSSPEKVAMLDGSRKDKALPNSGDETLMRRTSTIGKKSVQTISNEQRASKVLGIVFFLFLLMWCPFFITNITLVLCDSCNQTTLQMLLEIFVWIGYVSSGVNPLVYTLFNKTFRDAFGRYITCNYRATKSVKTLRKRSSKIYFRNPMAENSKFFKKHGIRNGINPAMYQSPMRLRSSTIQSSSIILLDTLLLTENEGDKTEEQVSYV
# [5] = biological target: T6, recombinant human 5-HT6 receptor (Homo sapiens, UniProt P50406); assay: radioligand binding to serotonin receptor 5-HT6 ([3H] Lysergic acid diethylamide)
# T6 construct: expressed in transfected cells; host or cells: HeLa
# T6 sequence (P50406 whole entry): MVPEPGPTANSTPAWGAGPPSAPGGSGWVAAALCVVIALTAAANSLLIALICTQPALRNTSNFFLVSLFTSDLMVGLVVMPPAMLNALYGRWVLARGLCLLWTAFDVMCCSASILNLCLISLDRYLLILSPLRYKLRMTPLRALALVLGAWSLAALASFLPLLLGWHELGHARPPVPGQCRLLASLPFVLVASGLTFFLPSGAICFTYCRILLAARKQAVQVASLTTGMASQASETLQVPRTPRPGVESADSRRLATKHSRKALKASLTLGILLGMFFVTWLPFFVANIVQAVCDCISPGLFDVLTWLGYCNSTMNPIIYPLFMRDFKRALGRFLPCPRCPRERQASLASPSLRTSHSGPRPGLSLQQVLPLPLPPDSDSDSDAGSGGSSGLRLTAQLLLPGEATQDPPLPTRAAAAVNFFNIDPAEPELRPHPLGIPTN
# Description: Mol. Pharmacol. 43:320-327, 1993]. […] Methiothepin is used as positive control.
# human 5-HT7 receptor = biological target: T7, human 5-HT7 receptor (Homo sapiens, UniProt P34969); assay: radioligand binding to serotonin receptor 5-HT7 ([3H] Lysergic acid diethylamide); conditions: ligand concentration 1 μM
# T7 construct: expressed in transfected cells; host or cells: CHO
# T7 sequence (P34969 whole entry): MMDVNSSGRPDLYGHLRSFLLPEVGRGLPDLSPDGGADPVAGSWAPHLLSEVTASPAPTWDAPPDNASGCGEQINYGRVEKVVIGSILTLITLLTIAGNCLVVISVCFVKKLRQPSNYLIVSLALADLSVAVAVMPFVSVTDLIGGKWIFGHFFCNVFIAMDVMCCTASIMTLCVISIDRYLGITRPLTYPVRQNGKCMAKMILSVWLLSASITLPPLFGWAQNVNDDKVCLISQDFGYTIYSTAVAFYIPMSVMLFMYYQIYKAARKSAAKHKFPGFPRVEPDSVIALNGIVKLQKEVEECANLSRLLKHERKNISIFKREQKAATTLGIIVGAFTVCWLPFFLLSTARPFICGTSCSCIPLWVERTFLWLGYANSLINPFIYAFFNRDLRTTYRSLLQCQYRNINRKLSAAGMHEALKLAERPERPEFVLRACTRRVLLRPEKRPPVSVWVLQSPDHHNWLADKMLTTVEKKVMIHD
# Description: For this purpose sDNA of human 5-HT7 receptor is expressed in CHO cells as it was described in [Shen Y, Monsma F J Jr, Metcalf M A, Jose P A, Hamblin M W, and Sibley DR. […] J. Biol. Chem. 1993, 268, 18200-18204]. […] J. Pharmacol. Exp. Ther. 1994, 268:1403-1410]. […] Methiothepin is used as positive control.
# imidazoline receptor I2 = assay: radioligand binding to imidazoline receptor I2 ([3H] Idazoxan); design: species or system rat; conditions: 10 μM ligand
# Description: Determination of investigated compounds' binding to imidazoline I2 receptor is carried out according to the method described in [Brown C M, MacKinnon A C, McGrath J C, Spedding M and Kilpatrick A T, a2-Adrenoceptor subtypes and imidazoline-like binding in the rat brain. Br J. Pharmacol. 99:803-809, 1990]. […] Idazoxan is used as positive control.
SMILES,enhancement of memory disturbed by Scopolamine (passive avoidance) (male mice of BALB/c line [1]),anxiolytic (tranquilizing) action in elevated plus maze (male mice of BALB/c line [2]),memory disorders caused by Scopolamine in Morris water maze (mice),"α-Adrenoceptor α1D, % inhibition (human α1D receptor)","Histamine receptor H1, % inhibition (human H1 receptor)","Histamine receptor H2, % inhibition (human H2 receptor)",IC50 [3],Ki [3],nH 5-HT2A [3],nH 5-HT2B [4],IC50 ([4]; read-out: IC50 5-HT2B),Ki ([4]; read-out: Ki 5-HT2B),IC50 [5],Ki [5],nH 5-HT6 [5],inhibition at 1 µM (human 5-HT7 receptor),imidazoline I2 receptor % inhibition (imidazoline receptor I2)
Cc1ccc2c(c1)c1c(n2CCc2ccc(C)nc2)CCN(C)C1.Cl.Cl [1.1.2(4-2)],improve memory,analogous action,decreasing memory disorders coused by Scopalomine,,,,,,,,,,,,,,
Cc1ccc(S(=O)(=O)n2c3c(c4cc(C)ccc42)CN(C)CCC3)cc1.Cl [1.8.1(3)•HCl],,,,55%,95%,82%,22.5 nM,6.43 nM,1.01,0.784,319 nM,203 nM,34.8 nM,15.9 nM,1.07,99%,17%
